Assay results as given in patent US6147097A, “Imidazole derivatives as anti-HIV agents” (Shionogi & Co., Ltd., priority 1994, dated 2000).
≈ marks a conversion by molar mass, not a printed value. Where two headings read alike, the source gives them in different places.

Assays:
[1] = cytotoxicity in MT-4 cells (MTT, culture medium in place of HIV); assay type: cell-based; conditions: human
Method in brief: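 MT-4 cells (3.5×10^4 per well) exposed to diluted compound with culture medium added instead of HIV, 5 days at 37° C in CO2. MTT added for 1 h, formazan dissolved in Triton X-100/acidified isopropanol. OD read at 560 nm (690 nm reference) and compared with control.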

[2] = test system: HIV (HTLV-IIIB strain); test: microbe, parasite or virus in culture; assay type: cell-based; conditions: Human immunodeficiency virus 1, IIIB, MT4, 120 h
Method in brief: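 MT-4 cells (3.5×10^4 per well) were infected with HIV at 60 pfu per well in the presence of diluted compound and incubated for 5 days at 37° C. Surviving cells were then measured by MTT reduction, with the formazan dissolved in acidified isopropanol containing Triton X-100.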

[3] = molecular target: T1, purified recombinant HIV-1 reverse transcriptase (Human immunodeficiency virus type 1 group M subtype B, UniProt P04585); test: reverse transcriptase inhibition, poly(rA)/(dT) template primer, [3H]dTTP uptake; assay type: biochemical
T1 construct: purified recombinant HIV-1 reverse transcriptase; made in house; host or cells: Escherichia coli
Method in brief: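 Inhibition reported as percent reduction of [3H]dTTP incorporation relative to solvent control, after 1 h at 37 °C at pH 8.3. Recombinant RT from E. coli, poly(rA) template with oligo(dT) primer, 4 μM unlabeled dTTP as substrate; product collected on DEAE filter mats.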

[4] = MT-4 cells, no virus, 37° C., 5 days, MTT, Table 3, read-out: CC50
[5] = MT-4 cells, 60 pfu HIV per well, 37° C., 5 days, MTT, Tables 1 and 2, read-out: EC50

Compound	CC50 at 120 h [1, 4] [µg/mL]	EC50 [2] [µg/mL]	IC50 [3] [µM]	CC50 at 120 h ([1]; mt-4 cells) [µg/mL]	EC50 [2, 5] [µg/mL]
CCn1c(COC(N)=O)nc(C(C)C)c1Sc1cccc(Cl)c1 [Compound I-53, 2-carbamoyloxymethyl-5-(3-chlorophenylthio)-1-ethyl-4-isopropyl-1H-imidazole]	10 to 100 (≈ 28.3 to 283 µM)	0.004 to 0.008 (≈ 0.0113 to 0.0226 µM)	0.593	–	–
CCOC(=O)Cn1c(CCOCc2ccccc2)nc(C(C)C)c1Sc1cc(Cl)cc(Cl)c1 [Compound 130c]	–	–	> 197	12.5 (≈ 24.6 µM)	0.5 (≈ 0.985 µM)
CC(C)c1nc(CCOC(N)=O)n(Cc2ccc(N)cc2)c1Sc1cc(Cl)cc(Cl)c1 [Compound I-140, 1-(p-aminobenzyl)-2-(2-carbamoyloxyethyl)-5-(3,5-dichlorophenylthio)-4-isopropyl-1H-imidazole]	–	–	29.8	6.3 to 12.5 (≈ 13.1 to 26.1 µM)	0.03 to 0.06 (≈ 0.0626 to 0.125 µM)
CCn1c(CN)nc(C(C)C)c1Sc1cccc(Cl)c1 [Compound I-73, 2-aminomethyl-5-(3-chlorophenylthio)-1-ethyl-4-isopropylimidazole]	–	–	0.807	6.3 (≈ 20.3 µM)	0.016 (≈ 0.0516 µM)
Cc1cc(C)cc(S(=O)(=O)c2c(C(C)C)nc(C)n2C)c1 [Compound I-105, 5-(3,5-dimethylphenylsulfonyl)-4-isopropyl-1,2-dimethyl-1H-imidazole]	50 to 100 (≈ 163 to 326 µM)	–	171	–	0.5 (≈ 1.63 µM)
CCn1c(CO)nc(C(C)C)c1Sc1cccc(Cl)c1 [Compound I-28, [1-ethyl-5-(3-chlorophenylthio)-4-isopropyl-1H-imidazol-2-yl]methanol]	12.5 (≈ 40.2 µM)	–	0.643	–	0.002 to 0.004 (≈ 0.00643 to 0.0129 µM)
CC(C)c1nc(C=O)n(C)c1Sc1cc(Cl)cc(Cl)c1 [Compound I-7, 5-(3,5-dichlorophenylthio)-4-isopropyl-1-methyl-1H-imidazole-2-carbaldehyde]	10 to 100 (≈ 30.4 to 304 µM)	–	131	–	0.13 (≈ 0.395 µM)
CCn1c(CCOC(N)=O)nc(C(C)C)c1Sc1cc(Cl)cc(Cl)c1 [Compound I-137, 2-(2-carbamoyloxyethyl)-5-(3,5-dichlorophenylthio)-1-ethyl-4-isopropyl-1H-imidazole]	–	0.004 to 0.008 (≈ 0.00994 to 0.0199 µM)	8.2	50 (≈ 124 µM)	–
CC(C)c1nc(CO)n(Cc2cccc([N+](=O)[O-])c2)c1Sc1cc(Cl)cc(Cl)c1 [Compound 103b, 5-(3,5-dichlorophenylthio)-2-hydroxymethyl-4-isopropyl-1-(m-nitrobenzyl)-1H-imidazole]	–	–	25	50 (≈ 111 µM)	0.008 (≈ 0.0177 µM)
CCn1c(CN)nc(C(C)C)c1Sc1cc(Cl)cc(Cl)c1 [Compound I-71, 2-aminomethyl-5-(3,5-dichlorophenylthio)-1-ethyl-4-isopropyl-1H-imidazole]	1 to 10 (≈ 2.9 to 29 µM)	–	0.987	–	0.008 (≈ 0.0232 µM)
CC(C)c1nc(CO)n(CC2CC2)c1Sc1cc(Cl)cc(Cl)c1 [Compound I-30, [1-cyclopropylmethyl-5-(3,5-dichlorophenylthio)-4-isopropyl-1H-imidazol-2-yl]methanol]	10 to 100 (≈ 26.9 to 269 µM)	–	2.45	–	0.005 to 0.01 (≈ 0.0135 to 0.0269 µM)
CC(C)c1nc(CO)n(Cc2cccs2)c1Sc1cc(Cl)cc(Cl)c1.Cl [Compound I-126, 5-(3,5-dichlorophenylthio)-2-hydroxymethyl-4-isopropyl-1-(2-thienylmethyl)-1H-imidazole hydrochloride]	–	–	30.9	12.5 to 25	0.03
Cc1nc(C(C)C#N)c(Sc2cccc(Cl)c2)n1C (stereo not drawn) [Compound I-97, 2-[5-(3-chlorophenylthio)-1,2-dimethyl-1H-imidazol-4-yl]propiononitrile]	10 to 100 (≈ 34.3 to 343 µM)	–	25.4	–	0.06 to 0.13 (≈ 0.206 to 0.445 µM)
Cc1cc(C)cc([S+]([O-])c2c(C(C)C)nc(CO)n2C)c1 (stereo not drawn) [Compound I-106, [5-(3,5-dimethylphenylsulfinyl)-4-isopropyl-1-methyl-1H-imidazol-2-yl]methanol]	100 (≈ 326 µM)	–	> 326	–	1 to 10 (≈ 3.26 to 32.6 µM)
CC(C)C(=O)c1nc(C(C)C)c(Sc2cc(Cl)cc(Cl)c2)n1C [Compound I-12, [5-(3,5-dichlorophenylthio)-4-isopropyl-1-methyl-1H-imidazol-2-yl] isopropyl ketone]	50 to 100 (≈ 135 to 269 µM)	–	> 269	–	50 (≈ 135 µM)
